± gives the uncertainty stated by the source.
Experiment: xn = mol fraction of the nth substance listed

CCC(C)(C)OC + c1ccccc1
viscosity [mPa·s], 100 kPa
Settings	x1 = 0.051	x1 = 0.1986	x1 = 0.2998	x1 = 0.3995	x1 = 0.4992	x1 = 0.5905	x1 = 0.6974	x1 = 0.8012	x1 = 0.8948	x1 = 0.9496
293.15 K	0.623 ± 0.03	0.579 ± 0.03	0.553 ± 0.03	0.53 ± 0.03	0.51 ± 0.03	0.493 ± 0.03	0.475 ± 0.03	0.46 ± 0.03	0.451 ± 0.03	0.445 ± 0.03
303.15 K	0.547 ± 0.03	0.513 ± 0.03	0.493 ± 0.03	0.475 ± 0.03	0.461 ± 0.03	0.449 ± 0.03	0.436 ± 0.03	0.427 ± 0.03	0.422 ± 0.03	0.418 ± 0.03
313.15 K	0.478 ± 0.03	0.447 ± 0.03	0.43 ± 0.03	0.414 ± 0.03	0.402 ± 0.03	0.392 ± 0.03	0.381 ± 0.03	0.375 ± 0.03	0.372 ± 0.03	0.37 ± 0.03

BrC(Br)Br + CC(C)=O
298.15 K, 101 kPa
Settings	viscosity [mPa·s]
x1 = 0.0969	0.407 ± 0.011
x1 = 0.2014	0.529 ± 0.014
x1 = 0.332	0.696 ± 0.018
x1 = 0.428	0.847 ± 0.022
x1 = 0.4952	0.954 ± 0.025
x1 = 0.5974	1.131 ± 0.03
x1 = 0.6766	1.268 ± 0.033
x1 = 0.7997	1.503 ± 0.04
x1 = 0.9166	1.73 ± 0.05

CCCCCCCCO + CC1COC(=O)O1
298.15 K, 101 kPa
Settings	viscosity [mPa·s]
x2 = 0.0305	5.992 ± 0.034
x2 = 0.0991	5.607 ± 0.033
x2 = 0.1708	5.253 ± 0.031
x2 = 0.2441	4.915 ± 0.029
x2 = 0.3107	4.627 ± 0.028
x2 = 0.4055	4.245 ± 0.026
x2 = 0.4882	3.938 ± 0.024
x2 = 0.5632	3.679 ± 0.022
x2 = 0.6277	3.469 ± 0.021
x2 = 0.7091	3.222 ± 0.02
x2 = 0.7824	3.015 ± 0.018
x2 = 0.8415	2.857 ± 0.018
x2 = 0.9046	2.698 ± 0.017
x2 = 0.971	2.54 ± 0.016

BrC(Br)Br + CCCCCCCO
viscosity [mPa·s], 101.3 kPa
Settings	x1 = 0.102	x1 = 0.204	x1 = 0.301	x1 = 0.405	x1 = 0.503	x1 = 0.597	x1 = 0.699	x1 = 0.801	x1 = 0.901
298.15 K	5.359 ± 0.063	4.647 ± 0.056	4.131 ± 0.05	3.544 ± 0.043	3.133 ± 0.038	2.755 ± 0.034	2.44 ± 0.03	2.17 ± 0.027	1.982 ± 0.025
303.15 K	4.524 ± 0.054	3.988 ± 0.048	3.547 ± 0.043	3.093 ± 0.038	2.773 ± 0.034	2.457 ± 0.03	2.199 ± 0.027	1.992 ± 0.025	1.844 ± 0.023
308.15 K	3.863 ± 0.047	3.422 ± 0.042	3.084 ± 0.038	2.712 ± 0.033	2.461 ± 0.03	2.205 ± 0.027	1.99 ± 0.025	1.822 ± 0.023	1.713 ± 0.022

BrC(Br)Br + OCCCl
viscosity [mPa·s], 101.3 kPa
Settings	x1 = 0.099	x1 = 0.198	x1 = 0.301	x1 = 0.396	x1 = 0.498	x1 = 0.595	x1 = 0.702	x1 = 0.801	x1 = 0.896
298.15 K	2.878 ± 0.035	2.817 ± 0.035	2.587 ± 0.032	2.446 ± 0.03	2.3 ± 0.029	2.179 ± 0.027	2.067 ± 0.026	1.97 ± 0.025	1.915 ± 0.024
303.15 K	2.532 ± 0.031	2.487 ± 0.031	2.297 ± 0.029	2.191 ± 0.027	2.08 ± 0.026	1.982 ± 0.025	1.89 ± 0.024	1.825 ± 0.023	1.779 ± 0.022
308.15 K	2.237 ± 0.028	2.21 ± 0.028	2.055 ± 0.026	1.974 ± 0.025	1.884 ± 0.024	1.814 ± 0.023	1.746 ± 0.022	1.694 ± 0.021	1.666 ± 0.021

C=Cc1ccccc1 + C1COCCO1
viscosity [mPa·s], 101.33 kPa
Settings	x1 = 0.1012	x1 = 0.2139	x1 = 0.2989	x1 = 0.3996	x1 = 0.5054	x1 = 0.6016	x1 = 0.7019	x1 = 0.805	x1 = 0.9021
298.15 K	1.119 ± 0.028	1.069 ± 0.026	1.043 ± 0.026	1.005 ± 0.025	0.966 ± 0.024	0.929 ± 0.023	0.891 ± 0.022	0.853 ± 0.022	0.819 ± 0.021
303.15 K	1.034 ± 0.026	0.987 ± 0.025	0.959 ± 0.024	0.929 ± 0.023	0.893 ± 0.023	0.873 ± 0.022	0.829 ± 0.021	0.795 ± 0.02	0.766 ± 0.02
308.15 K	0.957 ± 0.024	0.915 ± 0.023	0.889 ± 0.023	0.862 ± 0.022	0.83 ± 0.021	0.802 ± 0.021	0.774 ± 0.02	0.744 ± 0.019	0.716 ± 0.019

CCCCCCCCO + CCCCCCC
viscosity [mPa·s], 101.33 kPa
Settings	298.15 K	308.15 K
x1 = 0.0448	0.4411 ± 0.0043	0.3932 ± 0.0038
x1 = 0.0922	0.4999 ± 0.0047	0.4375 ± 0.0042
x1 = 0.1826	0.6375 ± 0.0058	0.5457 ± 0.005
x1 = 0.278	0.8198 ± 0.0073	0.6942 ± 0.0062
x1 = 0.3705	1.072 ± 0.0094	0.8964 ± 0.0078
x1 = 0.469	1.464 ± 0.013	1.149 ± 0.0099
x1 = 0.5664	1.902 ± 0.017	1.594 ± 0.014
x1 = 0.6697	2.7 ± 0.025	2.213 ± 0.019
x1 = 0.7784	3.885 ± 0.037	3.021 ± 0.027
x1 = 0.8336	4.545 ± 0.044	3.466 ± 0.032
x1 = 0.8844	5.124 ± 0.051	3.885 ± 0.036
x1 = 0.9381	6.024 ± 0.061	4.399 ± 0.041

NCCOCCO + O
viscosity [mPa·s], 101.33 kPa
Settings	298.15 K	313.15 K	323.15 K
x1 = 0.0552	2.4 ± 0.027	1.452 ± 0.02	1.16 ± 0.018
x1 = 0.1002	3.874 ± 0.037	2.419 ± 0.027	1.857 ± 0.023
x1 = 0.1447	6.344 ± 0.072	3.715 ± 0.036	2.737 ± 0.029
x1 = 0.2249	11.4 ± 0.097	6.182 ± 0.071	4.438 ± 0.041
x1 = 0.2997	16.21 ± 0.12	8.343 ± 0.082	5.773 ± 0.069
x1 = 0.3995	21.35 ± 0.15	10.7 ± 0.094	7.293 ± 0.077
x1 = 0.5392	25.2 ± 0.17	12.28 ± 0.1	8.273 ± 0.081
x1 = 0.6075	26.8 ± 0.17	13.19 ± 0.11	8.903 ± 0.085
x1 = 0.7021	27.72 ± 0.18	13.65 ± 0.11	9.182 ± 0.086
x1 = 0.8071	27.7 ± 0.18	13.76 ± 0.11	9.315 ± 0.087
x1 = 0.9024	27.4 ± 0.18	13.65 ± 0.11	9.257 ± 0.086
